# Experimental data as given in ChEMBL document CHEMBL5678818, “Discovery of potent SOS1 inhibitors that block RAS activation via disruption of the RAS-SOS1 interaction” (Proc Natl Acad Sci U S A, 2019).
# What was measured:
# [1] = tested on: Receptor-type tyrosine-protein kinase FLT3 (Homo sapiens), P36888 [UNDEFINED MUTATION]; experiment: Inhibition of FLT3 ITD/D835V mutant (unknown origin) assessed as residual activity at 1000 nM by KINOMEscan analysis relative to control
# [2] = target: T1, Myotonin-protein kinase (Homo sapiens) (UniProt Q09013); experiment: Inhibition of DMPK (unknown origin) assessed as residual activity at 100 nM by KINOMEscan analysis relative to control
# T1 sequence (whole entry): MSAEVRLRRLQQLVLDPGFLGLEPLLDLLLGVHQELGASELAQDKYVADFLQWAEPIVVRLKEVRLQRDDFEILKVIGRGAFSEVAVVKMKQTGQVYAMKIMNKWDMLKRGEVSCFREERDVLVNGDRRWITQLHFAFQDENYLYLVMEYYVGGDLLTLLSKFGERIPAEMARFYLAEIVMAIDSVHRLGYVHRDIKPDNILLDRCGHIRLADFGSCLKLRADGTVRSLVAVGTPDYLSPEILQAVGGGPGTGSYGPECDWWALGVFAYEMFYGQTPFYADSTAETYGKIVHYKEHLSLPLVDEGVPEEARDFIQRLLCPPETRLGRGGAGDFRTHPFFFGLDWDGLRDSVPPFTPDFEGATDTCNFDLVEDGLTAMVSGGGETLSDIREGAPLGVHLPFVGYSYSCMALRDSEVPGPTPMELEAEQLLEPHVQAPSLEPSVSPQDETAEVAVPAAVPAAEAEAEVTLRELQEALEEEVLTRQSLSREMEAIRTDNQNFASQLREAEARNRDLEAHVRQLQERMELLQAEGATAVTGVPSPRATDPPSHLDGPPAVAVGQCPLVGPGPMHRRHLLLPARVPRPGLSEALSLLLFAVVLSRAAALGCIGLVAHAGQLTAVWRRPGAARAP
# [3] = target: T2, Tyrosine-protein kinase receptor TYRO3 (Homo sapiens) (UniProt Q06418); experiment: Inhibition of TYRO3 (unknown origin) assessed as residual activity at 100 nM by KINOMEscan analysis relative to control
# T2 sequence (whole entry): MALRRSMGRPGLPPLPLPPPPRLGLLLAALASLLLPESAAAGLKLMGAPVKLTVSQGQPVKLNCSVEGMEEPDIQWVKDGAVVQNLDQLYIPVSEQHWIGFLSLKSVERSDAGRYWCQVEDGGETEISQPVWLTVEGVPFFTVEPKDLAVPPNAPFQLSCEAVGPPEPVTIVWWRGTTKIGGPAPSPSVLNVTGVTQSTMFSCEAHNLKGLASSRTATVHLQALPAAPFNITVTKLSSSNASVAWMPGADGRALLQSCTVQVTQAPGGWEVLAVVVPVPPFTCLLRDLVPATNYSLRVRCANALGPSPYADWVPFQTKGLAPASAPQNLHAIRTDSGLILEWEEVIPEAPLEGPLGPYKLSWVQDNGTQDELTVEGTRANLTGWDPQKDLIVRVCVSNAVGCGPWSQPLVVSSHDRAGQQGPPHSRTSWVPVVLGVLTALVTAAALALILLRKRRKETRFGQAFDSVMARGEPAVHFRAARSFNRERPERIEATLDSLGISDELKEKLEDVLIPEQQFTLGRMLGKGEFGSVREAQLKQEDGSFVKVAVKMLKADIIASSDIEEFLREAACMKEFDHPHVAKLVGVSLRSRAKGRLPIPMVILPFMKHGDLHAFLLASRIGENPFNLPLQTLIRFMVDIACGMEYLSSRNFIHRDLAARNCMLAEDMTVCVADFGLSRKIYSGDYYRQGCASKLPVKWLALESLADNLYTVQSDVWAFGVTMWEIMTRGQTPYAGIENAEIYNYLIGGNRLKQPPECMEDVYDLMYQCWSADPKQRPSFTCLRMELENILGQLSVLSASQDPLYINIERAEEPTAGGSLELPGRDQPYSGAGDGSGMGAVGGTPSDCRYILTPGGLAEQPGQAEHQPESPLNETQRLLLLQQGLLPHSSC
# [4] = target: Tyrosine-protein kinase Tec (Homo sapiens) (UniProt P42680); experiment: Inhibition of TEC (unknown origin) assessed as residual activity at 100 nM by KINOMEscan analysis relative to control
# Tyrosine-protein kinase Tec (Homo sapiens), sequence (P42680 whole entry, looked up): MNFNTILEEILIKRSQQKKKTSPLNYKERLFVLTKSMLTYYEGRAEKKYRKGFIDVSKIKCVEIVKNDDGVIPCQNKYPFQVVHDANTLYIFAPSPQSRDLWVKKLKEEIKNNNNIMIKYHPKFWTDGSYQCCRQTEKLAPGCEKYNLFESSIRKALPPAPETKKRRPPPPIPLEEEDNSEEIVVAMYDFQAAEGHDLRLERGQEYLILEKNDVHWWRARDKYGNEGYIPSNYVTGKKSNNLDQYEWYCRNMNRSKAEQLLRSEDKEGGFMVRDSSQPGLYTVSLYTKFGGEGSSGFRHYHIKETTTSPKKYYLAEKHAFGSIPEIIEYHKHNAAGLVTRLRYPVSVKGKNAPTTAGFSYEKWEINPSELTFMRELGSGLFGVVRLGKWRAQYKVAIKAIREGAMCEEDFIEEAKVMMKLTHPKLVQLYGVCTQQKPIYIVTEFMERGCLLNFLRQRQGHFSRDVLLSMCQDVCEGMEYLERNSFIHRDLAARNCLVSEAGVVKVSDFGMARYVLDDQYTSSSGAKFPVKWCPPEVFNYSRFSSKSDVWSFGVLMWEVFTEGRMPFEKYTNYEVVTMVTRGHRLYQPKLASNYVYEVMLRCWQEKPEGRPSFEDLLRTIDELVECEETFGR
# Receptor-type tyrosine-protein kinase FLT3 (Homo sapiens), P36888 [UNDEFINED MUTATION], sequence (P36888 whole entry, looked up, stated change not applied): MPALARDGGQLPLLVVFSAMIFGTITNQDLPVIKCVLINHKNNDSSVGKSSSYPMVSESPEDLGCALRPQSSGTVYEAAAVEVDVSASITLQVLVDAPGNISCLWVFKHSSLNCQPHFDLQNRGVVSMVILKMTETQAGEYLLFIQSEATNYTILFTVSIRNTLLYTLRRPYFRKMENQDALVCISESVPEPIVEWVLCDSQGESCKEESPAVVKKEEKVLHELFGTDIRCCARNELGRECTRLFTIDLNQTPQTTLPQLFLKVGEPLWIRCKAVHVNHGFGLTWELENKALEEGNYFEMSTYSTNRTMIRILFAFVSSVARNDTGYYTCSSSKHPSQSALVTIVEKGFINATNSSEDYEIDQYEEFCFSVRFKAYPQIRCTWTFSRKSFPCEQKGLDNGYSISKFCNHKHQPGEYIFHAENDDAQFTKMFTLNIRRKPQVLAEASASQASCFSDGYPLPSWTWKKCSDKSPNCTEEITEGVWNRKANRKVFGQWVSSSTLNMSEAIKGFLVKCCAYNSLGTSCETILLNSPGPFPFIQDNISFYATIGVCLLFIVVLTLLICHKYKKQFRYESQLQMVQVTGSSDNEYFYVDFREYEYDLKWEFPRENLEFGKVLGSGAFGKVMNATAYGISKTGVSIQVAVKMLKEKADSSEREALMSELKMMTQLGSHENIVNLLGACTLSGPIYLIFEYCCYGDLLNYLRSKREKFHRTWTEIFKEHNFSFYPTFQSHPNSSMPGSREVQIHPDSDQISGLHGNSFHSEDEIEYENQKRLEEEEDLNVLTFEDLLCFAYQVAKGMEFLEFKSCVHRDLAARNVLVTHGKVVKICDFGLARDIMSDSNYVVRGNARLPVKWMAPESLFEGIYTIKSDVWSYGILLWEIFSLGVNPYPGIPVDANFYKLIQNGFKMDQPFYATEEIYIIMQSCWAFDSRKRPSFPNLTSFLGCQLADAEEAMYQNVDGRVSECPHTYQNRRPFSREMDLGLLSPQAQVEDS
Compound,Activity [1] [%],Activity [2] [%],Activity [3] [%],Activity [4] [%]
COc1cc2nc(C)nc(N[C@H](C)c3cccc(-c4cn[nH]c4)c3)c2cc1OC,100,,,
COc1cc2ncnc(N[C@H](C)c3cccc4ccccc34)c2cc1OC,,100,76,87
